Where “and” joins values, the source holds several entries; their conditions need not be identical. Equal entries are not always repeated.
Legend:
[1] = molecular target: T1, α-synuclein (α-syn) aggregates in PD brain homogenates (Homo sapiens, UniProt P37840); experiment: Two point screening assay (30 nM and 300 nM) vs [3H]asyn-44 in human PD brain homogenates; type: binding; details: for % [3H]asyn-44 remaining at 30 nM / remaining activity at 0.03 µM: 30 nM competitor; for % [3H]asyn-44 remaining at 300 nM / remaining activity at 0.3 µM: 300 nM competitor
T1 construct: Anterior cingulate cortex tissue from a Parkinson’s disease (PD) case; tissue Banner Sun Health Research Institute (Dr. Thomas Beach); host or cells: post-mortem human PD anterior cingulate cortex homogenate
Protocol: Screening assays for the test compounds were performed at two concentrations—30 nM and 300 nM—using unlabelled competitors in human PD brain homogenates against [^3H]asyn-44 as previously described. […] Each assay was conducted in triplicate for both concentrations to ensure reproducibility and statistical reliability.

[2] = molecular target: T1, α-synuclein (α-syn) aggregates in PD brain homogenates; experiment: In vitro competition (Ki) assay vs [3H]asyn-44 in PD brain homogenates; type: binding; details: 1 nM [3H]asyn-44
Protocol: Anterior cingulate cortex tissue from a Parkinson’s disease (PD) case was generously provided by Dr. Thomas Beach at the Banner Sun Health Research Institute in Arizona, USA. […] Preparation of the frozen blocks for binding assays followed previously established protocols.
The equilibrium inhibition constants (Ki) for the unlabelled compounds were measured against [^3H]asyn-44 using our previously reported procedure. For these assays, frozen aliquots of homogenized human brain tissue (stored at −80 °C) were used. Homogenates were prepared at 10 mg/mL in phosphate-buffered saline, then diluted with 50 mM Tris buffer (pH 7.0) to a working concentration of 1 mg/mL.
Unlabeled competitor compounds were initially dissolved in DMSO at 400 μM, then diluted with Tris buffer to 20 μM, resulting in a 5% DMSO concentration. A serial dilution series (ranging from 6 μM to 4 nM) was prepared in the same 5% DMSO/Tris buffer solution to maintain consistent solvent conditions throughout the assay.
To perform the binding assay, 50 μL of the appropriately diluted competitor solution was mixed with 50 μL of [^3H]asyn-44 (1 nM final concentration) and 800 μL of Tris buffer containing 20% ethanol and 0.1% bovine serum albumin (BSA). Then, 100 μL of the 1 mg/mL brain homogenate was added, bringing the final tissue concentration to 100 μg/mL. The reaction mixtures were incubated at room temperature for 60 min before filtration through Whatman GF/B glass fibre filters using a Brandel M-24R cell harvester (Gaithersburg, MD, USA). Filters were washed three times with 3 mL of Tris buffer containing 20% ethanol and 0.1% BSA.
After washing, retained radioactivity was measured using CytoScint-ES scintillation fluid following thorough vortexing. Specific binding was calculated by correcting for nonspecific binding (as described later), and the amount of bound radioligand was derived from the filter-associated radioactivity and the molar activity of the tritiated compound.

[3] = Metabolic stability in human liver microsomes; type: in vitro ADME; details: for % disappearance at 5 minutes relative to time zero / % disappearance at 15 minutes relative to time zero / % disappearance at 30 minutes relative to time zero / Clearance Category / remaining at 5 min, 1 μM / remaining at 0.5 h, 1 μM: human liver microsomes; for Clearance Category: as per Cyprotex Website; for half-life at 1 μM: human, pH 7.4, human liver microsomes (h-MR); for half-life at 1 μM / remaining at 5 min, 1 μM / remaining at 0.5 h, 1 μM: pooled human liver microsomes; for remaining at 5 min, 1 μM / remaining at 0.5 h, 1 μM: pH 7.4; for % disappearance at 30 minutes relative to time zero / remaining at 0.5 h, 1 μM: 30 min
Protocol: Metabolic stability assays were conducted using pooled human liver microsomes (HLMs) to evaluate the rate of in vitro metabolic degradation of the test compound. Incubations were carried out in duplicate (n = 2) at a final compound concentration of 1 μM. The protein concentration of the microsomal suspension was adjusted to 0.5 mg/mL using phosphate buffer (100 mM, pH 7.4). Reactions were initiated by the addition of NADPH (final concentration 1 mM) and incubated at 37 °C. Aliquots were taken at four time points: 0, 5, 15, and 30 min. Each reaction was quenched with ice-cold acetonitrile containing internal standard, followed by centrifugation to pellet proteins. Supernatants were analyzed using a validated LC-MS/MS method to determine the concentration of the parent compound at each time point. […] Metabolic stability was assessed by calculating the percentage of the parent compound remaining at each time point. The elimination rate constant (k), half-life (t1/2), and intrinsic clearance (CLint) were derived from the natural log-transformed concentration vs. time data, assuming first-order kinetics.

| % [3H]asyn-44 remaining at 30 nM [1] [%] | % [3H]asyn-44 remaining at 300 nM [1] [%] | SMILES | further results |
| --- | --- | --- | --- |
| 71 | 29 | FC1CCN(c2cc(-n3ncc4sc(-c5cccnc5)cc43)ncn2)C1 (stereo not shown) [LMD-073] | – |
| 41 | 19 | Cn1ccc(-c2cc3nn(-c4nccc(N5CCC(F)CC5)n4)cc3s2)n1 [LMD-075] | – |
| 48 | 33 | Cn1ccc(-c2cc3c(cnn3-c3ccc(N4CCC(F)C4)nn3)s2)n1 (stereo not shown) [LMD-072] | – |
| 56 | 29 | FC1CCN(c2ccnc(-n3cc4sc(-c5cccnc5)cc4n3)n2)C1 (stereo not shown) [LMD-061] | – |
| 45 | 17 | FC1CCN(c2cnc(-c3ccc4sc(-c5cccnc5)cc4n3)cn2)C1 (stereo not shown) [LMD-009] | – |
| 43 | 25 | Cn1ccc(N2Cc3nc(-c4cnc(N5CCC(F)C5)cn4)ccc3C2=O)n1 (stereo not shown) [LMD-017] | – |
| 54 | 28 | FC1CCN(c2ccc(-c3ccc4scc(Br)c4n3)cn2)C1 (stereo not shown) [LMD-040] | – |
| 46 | 26 | O=C1NCc2nc(-c3ccc(N4CCC(F)C4)nc3)ccc21 (stereo not shown) [LMD-064] | – |
| 56 | 25 | FC1CCN(c2ccc(-c3csc4ccc(-c5cccnc5)nc34)cn2)C1 (stereo not shown) [LMD-026] | – |
| 99 | 50 | Cn1cnc(N2Cc3nc(-c4ccc(N5CCC(F)C5)nc4)ccc3C2=O)c1 (stereo not shown) [LMD-023] | – |
| 50 | 34 | FC1CCN(c2cc(-n3cc4sc(-c5cccnc5)cc4n3)ncn2)CC1 [LMD-068] | – |
| 81 | 38 | FC1CCN(c2ccc(-n3cc4sc(-c5cncs5)cc4n3)cn2)C1 (stereo not shown) [LMD-028] | – |
| 87 | 58 | Cn1ccc(-c2cc3nc(-c4cnc(N5CCC(F)C5)cn4)ccc3s2)n1 (stereo not shown) [LMD-013] | – |
| 112 | 64 | Cn1ccc(-c2cc3nc(-c4ccc(N5CCC(F)C5)nc4)ccc3s2)n1 (stereo not shown) [LMD-005] | – |
| 34 | 12 | FC1CCN(c2cnc(-n3cc4sc(-c5cncs5)cc4n3)cn2)C1 (stereo not shown) [LMD-029] | Ki [2]: 0.013 µM |
| – | – | FC1CCN(c2cnc(-n3cc4sc(-c5cccnc5)cc4n3)cn2)CC1 [LMD-051] | Ki [2]: 0.0092 µM; remaining activity at 0.03 µM [1]: 38%; remaining activity at 0.3 µM [1]: 4%; % disappearance at 5 minutes relative to time zero [3]: 24.2%; % disappearance at 15 minutes relative to time zero [3]: 64.3%; % disappearance at 30 minutes relative to time zero [3]: 69.7%; Clearance Category [3]: High; half-life at 1 μM [3]: 17 min; remaining at 5 min, 1 μM [3]: 75.8%; remaining at 0.5 h, 1 μM [3]: 30.3% |
| 57 | 27 | FC1CCN(c2cnc(-c3ccc4sccc4n3)cn2)C1 (stereo not shown) [LMD-039] | – |
| 64 | 22 | Cn1ccc(-c2cc3c(cnn3-c3nccc(N4CCC(F)CC4)n3)s2)n1 [LMD-076] | – |
| 66 | 24 | FC1CCC(c2cnc(-n3cc4sccc4n3)cn2)C1 (stereo not shown) [LMD-031] | – |
| 89 | 35 | FC1CCN(c2cc(Cl)ncc2-c2ccc3sc(-c4cccnc4)cc3n2)C1 (stereo not shown) [LMD-049] | – |
| 49 | 31 | FC1CCN(c2ccnc(-n3cc4sc(-c5cccnc5)cc4n3)n2)CC1 [LMD-069] | – |

| % [3H]asyn-44 remaining at 30 nM [1] [%] | % [3H]asyn-44 remaining at 300 nM [1] [%] | SMILES | further results |
| --- | --- | --- | --- |
| 43 | 22 | FC1CCN(c2ccnc(-n3ncc4sc(-c5cccnc5)cc43)n2)C1 (stereo not shown) [LMD-070] | – |
| – | – | F[C@@H]1CCN(c2ccc(-n3ncc4sc(-c5cncs5)cc43)cn2)C1 [LMD-046] | Ki [2]: 0.012 µM and 0.0118 µM; remaining activity at 0.03 µM [1]: 43%; remaining activity at 0.3 µM [1]: 8%; t1/2 ([3]; human liver microsomes (h-MR)): unstable; % disappearance at 5 minutes relative to time zero [3]: 96.6%; % disappearance at 15 minutes relative to time zero [3]: 97.9%; remaining at 5 min, 1 μM [3]: 3.43% |
| – | – | F[C@@H]1CCN(c2cnc(-c3ccc4scc(-c5cccnc5)c4n3)cn2)C1 [LMD-045] | Ki [2]: 0.013 µM and 0.0133 µM; remaining activity at 0.03 µM [1]: 36%; remaining activity at 0.3 µM [1]: 13%; % disappearance at 5 minutes relative to time zero [3]: 34.7%; % disappearance at 15 minutes relative to time zero [3]: 65.6%; % disappearance at 30 minutes relative to time zero [3]: 86.5%; Clearance Category [3]: High; half-life at 1 μM [3]: 10.5 min; remaining at 5 min, 1 μM [3]: 65.3%; remaining at 0.5 h, 1 μM [3]: 13.5% |
| 91 | 48 | Cn1ccc(N2Cc3nc(-c4ccc(N5CCC(F)C5)nc4)ccc3C2=O)n1 (stereo not shown) [LMD-016] | – |
| 72 | 39 | CC1CCN(c2ncc(-c3ccc4sc(-c5cccnc5)cc4n3)cc2F)C1 (stereo not shown) [LMD-001] | – |
| 46 | 21 | COc1cncc(-c2cc3nc(-c4cnc(N5CCC(F)C5)cn4)ccc3s2)c1 (stereo not shown) [LMD-015] | – |
| 64 | 33 | Cn1ccc(-c2csc3ccc(-c4ccc(N5CCC(F)C5)nc4)nc23)n1 (stereo not shown) [LMD-063] | – |
| 58 | 15 | Cn1ccc(-c2cc3nn(-c4cnc(N5CCC(F)C5)cn4)cc3s2)n1 (stereo not shown) [LMD-054] | Ki [2]: 0.024 µM |
| 57 | 21 | Fc1cc(-c2ccc3sc(-c4cccnc4)cc3n2)cnc1N1CCCC1 [LMD-002] | – |
| 45 | 20 | F[C@@H]1CCN(c2cnc(-c3ccc4sc(-c5cncs5)cc4n3)cn2)C1 [LMD-014] | – |
| 66 | 27 | O=C1c2ccc(-c3ccc(N4CCC(F)C4)nc3)nc2CN1c1cccnc1 (stereo not shown) [LMD-019] | – |
| 76 | 51 | Cn1ccc(-c2cc3nn(-c4cnc(N5CCC(F)CC5)cn4)cc3s2)n1 [LMD-066] | – |
| 72 | 13 | FC1CCN(c2ccc(-c3cc4nc(-c5cccnc5)ccc4s3)cn2)C1 (stereo not shown) [LMD-024] | Ki [2]: 0.054 µM |
| 43 | 32 | FC1CCN(c2cnc(-c3ccc4sc(-c5cncs5)cc4n3)cn2)CC1 [LMD-062] | – |
| 55 | 45 | Cn1ccc(-c2cc3nn(-c4cc(N5CCC(F)CC5)ncn4)cc3s2)n1 [LMD-074] | – |
| 67 | 20 | Cn1ccc(-c2cc3c(cnn3-c3cc(N4CCC(F)CC4)ncn3)s2)n1 [LMD-077] | – |
| 65 | 23 | FC1CCN(c2cnc(-c3ccc4sccc4n3)cn2)CC1 [LMD-036] | – |
| 86 | 28 | Cn1ccc(-c2cc3nn(-c4ccc(N5CCC(F)C5)nn4)cc3s2)n1 (stereo not shown) [LMD-067] | – |
| 77 | 13 | FC1CCN(c2ccc(-c3ccc4scc(-c5cccnc5)c4n3)cn2)C1 (stereo not shown) [LMD-041] | Ki [2]: 0.058 µM |
| 51 | 33 | F[C@@H]1CCN(c2cnc(-n3cc4sc(-c5cccnc5)cc4n3)cn2)C1 [LMD-033] | – |

| SMILES | % [3H]asyn-44 remaining at 30 nM [1] [%] | % [3H]asyn-44 remaining at 300 nM [1] [%] | further results |
| --- | --- | --- | --- |
| Cn1ccc(-c2cc3nc(-c4cnc(N5CCC(F)CC5)cn4)ccc3s2)n1 [LMD-060] | 48 | 29 | – |

Source: publication PMC12523303, “Multi-Fused S,N-Heterocyclic Compounds for Targeting α-Synuclein Aggregates” (Cells, 2025)
